Test results from patent EP0459829A1, “Pharmacologically active CNS compounds” (THE WELLCOME FOUNDATION LIMITED, priority 1990, dated 1991).

Columns and labels:
[1] = system: veratrine-evoked release of glutamate from rat brain slices; test: Inhibition of veratrine-evoked release of glutamate from rat brain slices; type: cell-based; conditions: read-out: IC50(µM) Glutamate Release (P95 limits)
Procedure: (§1) A compound of Formula (1) was tested for its effect on veratrine-evoked release of glutamate from rat brain slices according to the protocol described in Epilepsia 27(5): 490-497, 1986. The protocol for testing for inhibition of DHFR activity was a modification of that set out in Biochemical Pharmacology Vol.20 pp 561-574, 1971.
(§2) The results are given in Table 1, the IC50 being the concentration of compound to cause 50% inhibition of (a) veratrine-evoked release of glutamate and (b) of DHFR enzyme activity.

Rat Liver DHFR = target: T1, Rat Liver DHFR (Rattus norvegicus, UniProt Q920D2); test: Inhibition of DHFR enzyme activity; type: biochemical; conditions: read-out: IC50(µM) Rat Liver DHFR (P95 limits)
T1 construct: from tissue; host or cells: rat liver
T1 sequence (Q920D2 1-187): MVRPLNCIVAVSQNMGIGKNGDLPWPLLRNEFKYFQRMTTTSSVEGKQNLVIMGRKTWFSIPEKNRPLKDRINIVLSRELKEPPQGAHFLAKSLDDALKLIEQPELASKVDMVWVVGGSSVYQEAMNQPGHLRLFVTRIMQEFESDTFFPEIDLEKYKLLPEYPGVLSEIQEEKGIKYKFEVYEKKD
Procedure: as §1, §2

`Nc1nnc(-c2cc(Cl)c(N)c(Cl)c2Cl)c(N)n1` [Example 1, 3,5-Diamino-6-(4-amino-2,3,5-trichlorophenyl)-1,2,4-triazine] gave an IC50 [1] of under 10 µM and an IC50 (Rat Liver DHFR) of over 100 µM.
